In ChEMBL document CHEMBL1146913, “Symmetrical and unsymmetrical analogues of isoxyl; active agents against Mycobacterium tuberculosis” (2006):
Converted amounts (≈) assume the structure as drawn. The source made the active and inactive calls. The rule behind the calls is not given here.

Columns and labels:
[1] = test system: Mycobacterium tuberculosis; assay: Antibacterial activity against Mycobacterium bovis BCG; assay type: functional; details: variant bovis BCG
[2] = test system: Mycobacterium tuberculosis; assay: Inhibition of oleate production in Mycobacterium bovis BCG; assay type: functional; details: for inhibition: variant bovis BCG

Row | SMILES | MIC99 [1] | inhibition [2] | Inhibition [2]
1 | CCCCOc1ccc(NC(=S)Nc2ccc(CCCC)cc2)cc1 | 0.7 µg/mL (≈ 1.96 µM) | inactive | –
2 | CCCSc1ccc(NC(=S)Nc2ccc(OCCC(C)C)cc2)cc1 | 0.5 µg/mL (≈ 1.29 µM) | – | 53.32%
3 | CC(C)CCOc1ccc(NC(=S)Nc2ccc(OCCC(C)C)cc2)cc1 [TIOCARLIDE] | 1.1 µg/mL (≈ 2.75 µM) | – | 61.02%
4 | CC(C)CCOc1ccc(NC(=S)Nc2ccc(OCC(C)C)cc2)cc1 | 0.9 µg/mL (≈ 2.33 µM) | – | 19.24%
5 | CCCOc1ccc(NC(=S)Nc2ccc(OCCC)cc2)cc1 | 0.5 µg/mL (≈ 1.45 µM) | – | 90.76%
6 | CCCCOc1ccc(NC(=S)Nc2ccc(OCCCC)cc2)cc1 | 0.5 µg/mL (≈ 1.34 µM) | – | 94.25%
7 | CC(C)CCOc1ccc(NC(=S)Nc2ccc(Cc3ccccc3)cc2)cc1 | 1.1 µg/mL (≈ 2.72 µM) | – | 48.83%
8 | CC(C)CSc1ccc(NC(=S)Nc2ccc(SCC(C)C)cc2)cc1 | 0.6 µg/mL (≈ 1.48 µM) | inactive | –
9 | CCCCOc1ccc(NC(=S)Nc2ccc(SCC(C)C)cc2)cc1 | 0.7 µg/mL (≈ 1.8 µM) | – | 17.75%
10 | CCCCc1ccc(NC(=S)Nc2ccc(OCCC)cc2)cc1 | 0.06 µg/mL (≈ 0.175 µM) | inactive | –
11 | CCCCOc1ccc(NC(=S)Nc2ccc(Cc3ccccc3)cc2)cc1 | 1.5 µg/mL (≈ 3.84 µM) | – | 66.15%
12 | CCCCc1ccc(NC(=S)Nc2ccc(OCCC(C)C)cc2)cc1 | 0.6 µg/mL (≈ 1.62 µM) | – | 14.82%
13 | CCCSc1ccc(NC(=S)Nc2ccc(Cc3ccccc3)cc2)cc1 | 1.75 µg/mL (≈ 4.46 µM) | inactive | –
14 | CC(C)COc1ccc(NC(=S)Nc2ccc(OCC(C)C)cc2)cc1 | 0.9 µg/mL (≈ 2.42 µM) | – | 51.62%
15 | CCCCOc1ccc(NC(=S)Nc2ccc(OCC(C)C)cc2)cc1 | 0.6 µg/mL (≈ 1.61 µM) | – | 63.99%
16 | CCCCOc1ccc(NC(=S)Nc2ccc(OCCC(C)C)cc2)cc1 | 0.4 µg/mL (≈ 1.03 µM) | – | 79.96%
17 | CCCCOc1ccc(NC(=S)Nc2ccc(SCCC)cc2)cc1 | 0.06 µg/mL (≈ 0.16 µM) | inactive | –
18 | CCCCc1ccc(NC(=S)Nc2ccc(CCCC)cc2)cc1 | 0.075 µg/mL (≈ 0.22 µM) | inactive | –
